Source: article PMC12728616, “Regioselective Glycosylation of Fluorine-18-Labeled Sorbitol for Enhanced Bacterial Detection In Vivo Using PET” (JACS Au, 2025)
Where “and” joins values, the source holds several entries; their conditions need not be identical. Identical values can stand only once.

How the values were obtained:
K. pneumoniae = assay: PET/CT in K. pneumoniae pneumonia murine model; assay type: in vivo, mice; conditions: for PET signal in heat-killed K. pneumoniae inoculated lungs: 10x heat-killed K. pneumoniae; for ex vivo infected/uninfected lung ratio: ex vivo gamma counting after PET; for ROI-derived infected/uninfected lung ratio: in vivo PET, 80 min postinjection (mid time), 24 h after intranasal K. pneumoniae
Experimental: Given promising low background signals in uninfected mice, we further evaluated [^18F]-FNT and [^18F]-FMT in two different clinically relevant mouse models of lung and muscle infections. […] PET scanning was performed at 24 h postintranasal bacterial installation (Figure A). […] The ROI-derived infected/uninfected lung ratios of [^18F]-FDS, [^18F]-FMT, and [^18F]-FNT were approximately 3.2, 6.1, and 5.9-fold, respectively (Figure C), also supported by the ex vivo infected/uninfected lung ratio of [^18F]-FDS (∼1.6-fold), [^18F]-FMT (∼5.7-fold), and [^18F]-FNT (∼5.7-fold) (Figure D). Post-PET scans, infected lungs were harvested to determine colony forming units (CFUs). No significant differences in bacterial counts were observed among [^18F]-FDS, [^18F]-FMT, and [^18F]-FNT (Figure E). To confirm radiotracer specificity, we also evaluated mice inoculated with 10x heat-killed K. pneumoniae into lungs (Supporting Information Figure S5A–C).
All animal procedures were conducted in accordance with UCSF institutional guidelines and were approved by the Institutional Animal Care and Use Committee (IACUC). Female CBA/J mice (9 and 11 weeks old) were used for the study. Pulmonary infection and bacterial myositis models were established based on previously published protocols. , For pulmonary infection, 50 μL of K. pneumoniae (5 × 10^6 CFU) or 10× heat-killed K. pneumoniae were administered intranasally under anesthesia 24 h prior to imaging using PET. After PET scans, infected lungs were homogenized in PBS and plated on LB agar. Plates were incubated overnight at 37 °C to quantify the bacterial burden. For the bacterial myositis model, mice were intramuscularly injected with either 1 × 10^6 CFUs of live S. aureus (MSSA or MRSA) or 1 × 10^7 CFUs of heat-killed bacteria (50 μL) into the left and right deltoid muscles, respectively, 10 h prior to imaging using PET. Immediately following all imaging studies, target tissues were harvested, and radioactivity was measured using a gamma counter.
μPET/CT imaging was conducted using a nanoScan μPET/CT instrument (PET123S/CT1512, Mediso). Mice were anesthetized with 2% isoflurane/oxygen for intravenous administration of ^18F-tracers (∼5 MBq in 150 μL) via tail vein and maintained during data acquisition. PET data of uninfected mice were acquired in the list mode for 90 min, starting immediately after ^18F-tracer administration, followed by a CT scan. The PET data were reconstructed into three-dimensional volumes and coregistered with CT images using manufacturer-provided software in 53 dynamic frames (15 × 2 s, 6 × 5 s, 6 × 10 s, 4 × 30 s, 6 × 30 s, and 16 × 300 s). PET data of infected mice were acquired for 20 min, starting at 70 min postinjection of ^18F-tracer (mid time 80 min), followed by a CT scan. The list mode PET data were reconstructed into three-dimensional volumes in a single static frame. All PET scans were corrected for ^18F decay, dead time, and random coincidences and reconstructed into a 160 × 160 × 184 matrix with voxel size 0.8 mm using a three-dimensional ordered subject expectation maximization (OSEM) algorithm (40 iterations, 1 subset). Both attenuation and scatter corrections were applied to PET reconstructions using the coregistered CT. ROIs were drawn manually around the brain, lungs, liver, kidney, and urinary bladder using Amide software to generate image-derived TACs. For the estimation of blood pool radioactivity over time, ROIs were drawn on the left atrium. To estimate the plasma half-life of tracers, the TAC of the blood pool was fitted to a two-compartment model using a biexponential decay function: C t(t) = Ae ^–αt + Be ^ ‑βt , where C t(t) is the tracer concentration (% IDcc^–1) at time (t), A and B are the intercepts, and α and β are the distribution and elimination rate constants, respectively. , Quantitative uptake values are expressed as % IDcc^–1, representing the percent of the total injected dose per cubic centimeter. […]

[1] = In vitro stability in serum; assay type: in vitro ADME, human; conditions: up to 120 min at 37 °C

Row | Compound | PET signal in heat-killed K. pneumoniae inoculated lungs (K. pneumoniae) | ex vivo infected/uninfected lung ratio (K. pneumoniae) [fold] | ROI-derived infected/uninfected lung ratio (K. pneumoniae) | in vitro stability in human serum [1]
1 | OC[C@@H](O)[C@@H](O[C@H]1O[C@H](CO)[C@@H](O)[C@H](O)[C@H]1O)[C@H](O)[C@@H]([18F])CO [[18F]FMT, 2-deoxy-2-[18F]fluoro-D-maltitol] | No visible signal | ~5.7 | ~6 fold and ~6.1 fold | intact
2 | OC[C@@H](O)[C@@H](O)[C@H](O[C@H]1O[C@H](CO)[C@@H](O)[C@H](O)[C@H]1O)[C@@H]([18F])CO [[18F]FNT, 2-deoxy-2-[18F]fluoro-D-nigeritol] | No visible signal | ~5.7 | ~6 fold and ~5.9 fold | intact
